From paper PMC5218480 (PLoS ONE, 2017)

System: MV-4-11 cells
Assay: Gene expression microarray analysis (Affymetrix PrimeView) and GSEA
Format: cell-based, human
Parameters: RFU PODN (11730768_x_at) / Fold change /veh PODN (11730768_x_at) / RFU LINC00158 (11744669_a_at) / Fold change /veh LINC00158 (11744669_a_at) / RFU DUSP10 (11751237_a_at) / Fold change /veh DUSP10 (11751237_a_at) / RFU ID3 (11757404_x_at) / Fold change /veh ID3 (11757404_x_at) / RFU PLEKHG5 (11737974_s_at) / Fold change /veh PLEKHG5 (11737974_s_at) / RFU LRRC4B (11730491_at) / Fold change /veh LRRC4B (11730491_at) / RFU GIMAP4 (11747438_a_at) / Fold change /veh GIMAP4 (11747438_a_at) / RFU KRT8 (11758183_x_at) / Fold change /veh KRT8 (11758183_x_at) / RFU CNN1 (11734310_a_at) / Fold change /veh CNN1 (11734310_a_at) / RFU VPS37D (11726825_at) / Fold change /veh VPS37D (11726825_at) / RFU C10orf10 (11716522_x_at) / Fold change /veh C10orf10 (11716522_x_at) / RFU KIR2DL2 /// KIR2DL4 /// KIR2DL5A /// KIR2DL5B /// KIR2DS1 /// KIR2DS2 /// KIR2DS3 /// KIR2DS4 /// KIR3DL3 /// KIR3DL3 /// KIR3DS1 (11738374_at) / Fold change /veh KIR2DL2 /// KIR2DL4 /// KIR2DL5A /// KIR2DL5B /// KIR2DS1 /// KIR2DS2 /// KIR2DS3 /// KIR2DS4 /// KIR3DL3 /// KIR3DL3 /// KIR3DS1 (11738374_at) / RFU C1QL1 (11718748_at) / Fold change /veh C1QL1 (11718748_at) / RFU TMPRSS4 (11747572_a_at) / Fold change /veh TMPRSS4 (11747572_a_at) / RFU HAMP (11756126_x_at) / Fold change /veh HAMP (11756126_x_at) / RFU RNFT2 (11725882_a_at) / Fold change /veh RNFT2 (11725882_a_at) / RFU NR4A2 (11747474_a_at) / Fold change /veh NR4A2 (11747474_a_at) / RFU ABCC12 (11746883_a_at) / Fold change /veh ABCC12 (11746883_a_at) / RFU TMEM136 (11760407_x_at) / Fold change /veh TMEM136 (11760407_x_at) / RFU CLDN22 /// WWC2 (11732394_at) / Fold change /veh CLDN22 /// WWC2 (11732394_at) / RFU HLA-DPB1 (11760878_x_at) / Fold change /veh HLA-DPB1 (11760878_x_at) / RFU SPINT1 (11716480_a_at) / Fold change /veh SPINT1 (11716480_a_at) / RFU GAP43 (11754022_s_at) / Fold change /veh GAP43 (11754022_s_at) / RFU A4GNT (11735810_at) / Fold change /veh A4GNT (11735810_at) / RFU PRB3 (11715151_x_at) / Fold change /veh PRB3 (11715151_x_at) / RFU TUBB4B (11761932_at) / Fold change /veh TUBB4B (11761932_at) / RFU CAPN14 (11732068_a_at) / Fold change /veh CAPN14 (11732068_a_at) / RFU TMCC2 (11721928_a_at) / Fold change /veh TMCC2 (11721928_a_at) / RFU IRGQ (11745062_a_at) / Fold change /veh IRGQ (11745062_a_at) / RFU FAM174B (11720279_a_at) / Fold change /veh FAM174B (11720279_a_at) / RFU TMPRSS4 (11748680_a_at) / Fold change /veh TMPRSS4 (11748680_a_at) / RFU FAM212B (11763350_a_at) / Fold change /veh FAM212B (11763350_a_at) / RFU PLEKHG5 (11743358_a_at) / Fold change /veh PLEKHG5 (11743358_a_at) / RFU ZSCAN30 (11745921_a_at) / Fold change /veh ZSCAN30 (11745921_a_at) / RFU CMKLR1 (11741424_a_at) / Fold change /veh CMKLR1 (11741424_a_at) / RFU LOC101060620 /// MAPK8IP1 (11723275_at) / Fold change /veh LOC101060620 /// MAPK8IP1 (11723275_at) / RFU SPTSSB (11747773_x_at) / Fold change /veh SPTSSB (11747773_x_at) / RFU PRSS12 (11739890_at) / Fold change /veh PRSS12 (11739890_at) / RFU BIN1 (11741810_x_at) / Fold change /veh BIN1 (11741810_x_at) / RFU WNT11 (11732464_a_at) / Fold change /veh WNT11 (11732464_a_at) / RFU C10orf10 (11716521_a_at) / Fold change /veh C10orf10 (11716521_a_at) / RFU C5orf56 (11738089_at) / Fold change /veh C5orf56 (11738089_at) / RFU CYB561 (11721691_x_at) / Fold change /veh CYB561 (11721691_x_at) / RFU ANKRD19P (11752326_a_at) / Fold change /veh ANKRD19P (11752326_a_at) / RFU OR2T12 /// OR2T33 /// OR2T8 (11738714_s_at) / Fold change /veh OR2T12 /// OR2T33 /// OR2T8 (11738714_s_at) / RFU VCAN (11748164_a_at) / Fold change /veh VCAN (11748164_a_at) / RFU JSRP1 (11732532_at) / Fold change /veh JSRP1 (11732532_at) / RFU KRTAP10-11 (11738290_x_at) / Fold change /veh KRTAP10-11 (11738290_x_at) / RFU MYO3A (11730013_a_at) / Fold change /veh MYO3A (11730013_a_at) / RFU EBF3 (11725865_a_at) / Fold change /veh EBF3 (11725865_a_at) / RFU CAMK2N1 (11719241_x_at) / Fold change /veh CAMK2N1 (11719241_x_at) / RFU C5orf56 (11738088_a_at) / Fold change /veh C5orf56 (11738088_a_at) / RFU OLFML3 (11715873_a_at) / Fold change /veh OLFML3 (11715873_a_at) / RFU LOC100653217 /// NTM (11731650_a_at) / Fold change /veh LOC100653217 /// NTM (11731650_a_at) / RFU MAPK11 (11762145_a_at) / Fold change /veh MAPK11 (11762145_a_at) / RFU FIZ1 (11724087_x_at) / Fold change /veh FIZ1 (11724087_x_at) / RFU OASL (11726364_x_at) / Fold change /veh OASL (11726364_x_at) / RFU SOX15 (11748057_x_at) / Fold change /veh SOX15 (11748057_x_at) / RFU CD79A (11719716_a_at) / Fold change /veh CD79A (11719716_a_at) / RFU HIST1H1D (11736915_at) / Fold change /veh HIST1H1D (11736915_at) / RFU CASKIN2 (11723855_a_at) / Fold change /veh CASKIN2 (11723855_a_at) / RFU LOC730098 (11760151_x_at) / Fold change /veh LOC730098 (11760151_x_at) / RFU OR4N2 (11742367_at) / Fold change /veh OR4N2 (11742367_at) / RFU PRRT2 (11749266_a_at) / Fold change /veh PRRT2 (11749266_a_at) / RFU SNX32 (11753110_a_at) / Fold change /veh SNX32 (11753110_a_at) / RFU CDHR5 (11726645_a_at) / Fold change /veh CDHR5 (11726645_a_at) / RFU RCAN1 (11760418_a_at) / Fold change /veh RCAN1 (11760418_a_at) / RFU FAM167A (11723789_a_at) / Fold change /veh FAM167A (11723789_a_at) / RFU FAM26E (11764081_at) / Fold change /veh FAM26E (11764081_at) / RFU ISYNA1 (11749810_s_at) / Fold change /veh ISYNA1 (11749810_s_at) / RFU ACY1 (11761880_at) / Fold change /veh ACY1 (11761880_at) / RFU 11764098_at / Fold change /veh 11764098_at / RFU SAMD14 (11745864_x_at) / Fold change /veh SAMD14 (11745864_x_at) / RFU NPB (11741838_a_at) / Fold change /veh NPB (11741838_a_at) / RFU TMPRSS6 (11731388_a_at) / Fold change /veh TMPRSS6 (11731388_a_at) / RFU KRTAP10-2 (11738614_at) / Fold change /veh KRTAP10-2 (11738614_at) / RFU ARHGAP8 /// PRR5-ARHGAP8 (11727945_x_at) / Fold change /veh ARHGAP8 /// PRR5-ARHGAP8 (11727945_x_at) / RFU KRTAP5-7 /// NADSYN1 (11734609_at) / Fold change /veh KRTAP5-7 /// NADSYN1 (11734609_at) / RFU RASL12 (11751679_a_at) / Fold change /veh RASL12 (11751679_a_at) / RFU CDKN2B (11736163_a_at) / Fold change /veh CDKN2B (11736163_a_at) / RFU PRF1 (11729649_at) / Fold change /veh PRF1 (11729649_at) / RFU, ZNF638 /// ZNF638-IT1 / Fold change vs veh, ZNF638 /// ZNF638-IT1 / RFU, PANK3 / Fold change vs veh, PANK3 / RFU, SH3YL1 / Fold change vs veh, SH3YL1 / RFU, ZEB2 / Fold change vs veh, ZEB2 / RFU, NRIP1 / Fold change vs veh, NRIP1 / RFU, PTTG1IP / Fold change vs veh, PTTG1IP / RFU, CAPN2 / Fold change vs veh, CAPN2 / RFU, MED14 / Fold change vs veh, MED14 / RFU, SNORA58 / Fold change vs veh, SNORA58 / RFU, C1orf63 / Fold change vs veh, C1orf63 / RFU, LRRFIP1 / Fold change vs veh, LRRFIP1 / RFU, NDUFAF7 / Fold change vs veh, NDUFAF7 / RFU, SLC12A2 / Fold change vs veh, SLC12A2 / RFU, IBTK / Fold change vs veh, IBTK / RFU, ESF1 / Fold change vs veh, ESF1 / Fold change vs veh, TMEM50B / RFU, TAOK1 / Fold change vs veh, TAOK1 / RFU, ACBD3 / Fold change vs veh, ACBD3 / RFU, TMA16 / Fold change vs veh, TMA16 / RFU, RWDD3 / Fold change vs veh, RWDD3 / RFU, BCAT1 / Fold change vs veh, BCAT1 / RFU, EDEM3 / Fold change vs veh, EDEM3 / RFU, TMEM33 / Fold change vs veh, TMEM33 / RFU, WDR75 / Fold change vs veh, WDR75 / RFU, AHCTF1 / Fold change vs veh, AHCTF1 / RFU, TFRC / Fold change vs veh, TFRC / RFU, ZDHHC17 / Fold change vs veh, ZDHHC17 / RFU, NOM1 / Fold change vs veh, NOM1 / RFU, ARL8B / Fold change vs veh, ARL8B / RFU, ZBTB11 / Fold change vs veh, ZBTB11 / RFU, TAMM41 / Fold change vs veh, TAMM41 / RFU, KIAA1704 /// LOC100996395 / Fold change vs veh, KIAA1704 /// LOC100996395 / RFU, ING1 / Fold change vs veh, ING1 / RFU, TRMT61B / Fold change vs veh, TRMT61B / RFU, FUBP3 / Fold change vs veh, FUBP3 / RFU, TP53 / Fold change vs veh, TP53 / RFU, TNKS2 / Fold change vs veh, TNKS2 / RFU, ZFP14 / Fold change vs veh, ZFP14 / RFU, ACTR2 / Fold change vs veh, ACTR2 / RFU, PPP3R1 / Fold change vs veh, PPP3R1 / RFU, PIK3R1 / Fold change vs veh, PIK3R1 / RFU, HNRNPA1 / Fold change vs veh, HNRNPA1 / RFU, RNF170 / Fold change vs veh, RNF170 / RFU, ZNF28 / Fold change vs veh, ZNF28 / RFU, RNGTT / Fold change vs veh, RNGTT / RFU, OGT / Fold change vs veh, OGT / RFU, BRD1 / Fold change vs veh, BRD1 / RFU, MARS / Fold change vs veh, MARS / RFU, ZNF655 / Fold change vs veh, ZNF655 / RFU, FAHD1 / Fold change vs veh, FAHD1 / RFU, BDP1 / Fold change vs veh, BDP1 / RFU, LRRCC1 / Fold change vs veh, LRRCC1 / RFU, ARID1A / Fold change vs veh, ARID1A / RFU, ZNF146 / Fold change vs veh, ZNF146 / RFU, ZNF330 / Fold change vs veh, ZNF330 / RFU, GPN3 / Fold change vs veh, GPN3 / RFU, C9orf123 / Fold change vs veh, C9orf123 / RFU, N4BP2L2 / Fold change vs veh, N4BP2L2 / RFU, ARFIP1 / Fold change vs veh, ARFIP1 / RFU, FAM179B / Fold change vs veh, FAM179B / RFU, BCL10 / Fold change vs veh, BCL10 / RFU, UHRF1BP1L / Fold change vs veh, UHRF1BP1L / RFU, BET1 / Fold change vs veh, BET1 / RFU, CNOT2 / Fold change vs veh, CNOT2 / RFU, ZNF268 / Fold change vs veh, ZNF268 / Fold change vs veh, ZNF507 / RFU, DGCR2 / Fold change vs veh, DGCR2 / RFU, WDSUB1 / Fold change vs veh, WDSUB1 / Fold change vs veh, HSP90B1 /// MIR3652 / RFU, ADSS / Fold change vs veh, ADSS / RFU, GK / Fold change vs veh, GK / RFU, ZNF148 / Fold change vs veh, ZNF148 / RFU, TAF9 / Fold change vs veh, TAF9 / RFU, SLC1A5 / Fold change vs veh, SLC1A5 / RFU, SLMO2 / Fold change vs veh, SLMO2 / RFU, ABCC4 / Fold change vs veh, ABCC4 / RFU, LOC101060439 /// RAP1B / Fold change vs veh, LOC101060439 /// RAP1B / RFU, RFX7 / Fold change vs veh, RFX7 / RFU, GTPBP10 / Fold change vs veh, GTPBP10 / RFU, CNEP1R1 / Fold change vs veh, CNEP1R1 / RFU, BIVM-ERCC5 /// ERCC5 / Fold change vs veh, BIVM-ERCC5 /// ERCC5 / RFU, ILF3 / Fold change vs veh, ILF3 / RFU 11762660_at / Fold change /veh 11762660_at / RFU VCAN (11757783_s_at) / Fold change /veh VCAN (11757783_s_at) / RFU DDX43 (11728927_at) / Fold change /veh DDX43 (11728927_at) / RFU KRT8 (11758188_x_at) / Fold change /veh KRT8 (11758188_x_at) / RFU NKD1 (11759106_at) / Fold change /veh NKD1 (11759106_at) / RFU SRD5A1 (11742802_a_at) / Fold change /veh SRD5A1 (11742802_a_at) / RFU TPSAB1 /// TPSB2 (11721975_s_at) / Fold change /veh TPSAB1 /// TPSB2 (11721975_s_at) / RFU GSTM3 (11746129_a_at) / Fold change /veh GSTM3 (11746129_a_at) / RFU IL23R (11737362_x_at) / Fold change /veh IL23R (11737362_x_at) / RFU TMEM51 (11727254_a_at) / Fold change /veh TMEM51 (11727254_a_at) / RFU PIWIL2 (11732686_x_at) / Fold change /veh PIWIL2 (11732686_x_at) / RFU ORM1 (11744905_x_at) / Fold change /veh ORM1 (11744905_x_at) / RFU CCDC152 (11743942_at) / Fold change /veh CCDC152 (11743942_at) / RFU ECM1 (11717891_a_at) / Fold change /veh ECM1 (11717891_a_at) / RFU IL23R (11748794_a_at) / Fold change /veh IL23R (11748794_a_at) / RFU TNFAIP8L3 (11732012_x_at) / Fold change /veh TNFAIP8L3 (11732012_x_at) / RFU MBOAT4 (11741988_at) / Fold change /veh MBOAT4 (11741988_at) / RFU 11764193_at / Fold change /veh 11764193_at / RFU TMEM53 (11763286_at) / Fold change /veh TMEM53 (11763286_at) / RFU MAGEB2 (11727129_at) / Fold change /veh MAGEB2 (11727129_at) / RFU TMEM200A (11744735_a_at) / Fold change /veh TMEM200A (11744735_a_at) / RFU CCDC152 (11751479_a_at) / Fold change /veh CCDC152 (11751479_a_at) / RFU FAM211A (11726209_a_at) / Fold change /veh FAM211A (11726209_a_at) / RFU RGS16 (11746705_a_at) / Fold change /veh RGS16 (11746705_a_at) / RFU VCAN (11755009_s_at) / Fold change /veh VCAN (11755009_s_at) / RFU RHOB (11743442_s_at) / Fold change /veh RHOB (11743442_s_at) / RFU RGS16 (11720943_a_at) / Fold change /veh RGS16 (11720943_a_at) / RFU RGS16 (11720944_at) / Fold change /veh RGS16 (11720944_at) / RFU, VPS4B / Fold change vs veh, VPS4B / RFU, CREB1 / Fold change vs veh, CREB1 / RFU, DNAJC13 / Fold change vs veh, DNAJC13 / RFU, GNAQ / Fold change vs veh, GNAQ / RFU, CDK5R1 / Fold change vs veh, CDK5R1 / RFU, ZRANB3 / Fold change vs veh, ZRANB3 / RFU, CUL4A / Fold change vs veh, CUL4A / RFU, CCNY / Fold change vs veh, CCNY / RFU, UFL1 / Fold change vs veh, UFL1 / RFU, COG3 / Fold change vs veh, COG3 / RFU, DIAPH2 / Fold change vs veh, DIAPH2 / RFU, SKA2 / Fold change vs veh, SKA2 / RFU, AFF3 / Fold change vs veh, AFF3 / RFU, LMF1 / Fold change vs veh, LMF1 / RFU, IPO11 / Fold change vs veh, IPO11 / RFU, DFFB / Fold change vs veh, DFFB / RFU, FOXP1 / Fold change vs veh, FOXP1 / RFU, CARD8 / Fold change vs veh, CARD8 / RFU, STRN3 / Fold change vs veh, STRN3 / RFU, ADK / Fold change vs veh, ADK / RFU, RASSF2 / Fold change vs veh, RASSF2 / RFU, WIPF1 / Fold change vs veh, WIPF1 / RFU, LARP1B / Fold change vs veh, LARP1B / RFU, RASA1 / Fold change vs veh, RASA1 / RFU, RB1 / Fold change vs veh, RB1 / RFU, PPFIA1 / Fold change vs veh, PPFIA1 / RFU, MAT2A / Fold change vs veh, MAT2A / RFU, CCT5 / Fold change vs veh, CCT5 / RFU, WDR92 / Fold change vs veh, WDR92 / RFU, CUX1 / Fold change vs veh, CUX1 / RFU, TTC7A / Fold change vs veh, TTC7A / RFU, TMEM135 / Fold change vs veh, TMEM135 / RFU, DEPTOR / Fold change vs veh, DEPTOR / RFU, CPM / Fold change vs veh, CPM / RFU, DNAJB6 / Fold change vs veh, DNAJB6 / RFU, CACNA2D3 / Fold change vs veh, CACNA2D3 / RFU, DTX4 / Fold change vs veh, DTX4 / RFU, TFCP2 / Fold change vs veh, TFCP2 / RFU, GMCL1 /// GMCL1P1 / Fold change vs veh, GMCL1 /// GMCL1P1 / RFU, AEBP2 / Fold change vs veh, AEBP2 / RFU, SNHG1 /// SNORD22 /// SNORD25 /// SNORD26 /// SNORD27 /// SNORD28 /// SNORD29 /// SNORD31 / Fold change vs veh, SNHG1 /// SNORD22 /// SNORD25 /// SNORD26 /// SNORD27 /// SNORD28 /// SNORD29 /// SNORD31 / Fold change (Aza/veh), C12orf56 (ProbeSet 11735607_a_at) / Fold change (ACY-1035/veh), C12orf56 (ProbeSet 11735607_a_at) / Fold change (Aza/veh), FGFR1OP (ProbeSet 11751329_s_at) / Fold change (ACY-1035/veh), FGFR1OP (ProbeSet 11751329_s_at) / Fold change (Aza/veh), VPS36 (ProbeSet 11739960_a_at) / Fold change (ACY-1035/veh), VPS36 (ProbeSet 11739960_a_at) / RFU SYPL1 (11715823_x_at) / Fold change /veh SYPL1 (11715823_x_at) / RFU IGFBP7 (11715501_s_at) / Fold change /veh IGFBP7 (11715501_s_at) / RFU REEP3 (11722064_at) / Fold change /veh REEP3 (11722064_at) / RFU IGLL1 (11728026_x_at) / Fold change /veh IGLL1 (11728026_x_at): dose or concentration left out as unconfirmed
Conditions: ProbeSet 11728314_at; LIST B

## Nc1ncn([C@@H]2O[C@H](CO)[C@@H](O)[C@H]2O)c(=O)n1 [azacitidine]
  RFU, ZNF148: 202.48 RFU
